The source of these data is US20200248178A1, “COMBINATION THERAPIES FOR TREATING MUSCULAR DYSTROPHY” (Sarepta Therapeutics, Inc., priority 2017, published 2020).

The subject of one data set is NF-κB pathways. The settings on record: phase I, adults; cited from earlier work.
A further data set relates to Mdx mice. The settings on record: cited from earlier work.
Another data set has as its system NF-κB. The following applies: cited from earlier work.
In a further data set the test system is cNF-κB. The following applies: cited from earlier work.
Another data set concerns patient cells. The settings on record: cited from earlier work.
The test system of another data set is mouse model of DMD. The settings on record: cited from earlier work.
Data set [1] relates to dystrophin. The data set can be described thus: Study 201/202 Week 180 muscle biopsy, Western blot. The format is in vivo, human. As for the experimental part:
(§1) All 12 patients who participated in Study 1 continued treatment with open-label EXONDYS 51® weekly for an additional 4 years in Study 2. The 4 patients who had been randomized to placebo were re-randomized 1:1 to EXONDYS 51® 30 or 50 mg/kg/week such that there were 6 patients on each dose. Patients who participated in Study 2 were compared to an external control group. The primary clinical efficacy outcome measure was the 6MWT. […] The average dystrophin protein level after 180 weeks of treatment with EXONDYS 51® was 0.93% of the dystrophin level in healthy subjects.
(§2) In order to obtain a comprehensive view of dystrophin expression, biopsies from Study 201/202 were analyzed by three complementary assays. First, Western blot was used to quantitate dystrophin following extraction of protein from muscle tissue. Second, immunohistochemical (IHC) images were evaluated by trained, blinded pathologists to assess the percent dystrophin positive fibers (PDPF), providing information on sarcolemma localization and distribution of dystrophin in muscle fibers. Finally, the IHC images were also assessed by a computer algorithm to measure fiber intensity and to quantify dystrophin at the sarcolemmal membrane.
(In western blotting, separated proteins are transferred to a membrane and probed.)

Data set [2] deals with exon 51 of dystrophin pre-mRNA. The settings on record: normal human skeletal muscle cells or DMD patient muscle cells; cited from earlier work.
The subject of data set [3] is dystrophin. Description: Study 201/202 Week 180 biopsy, IHC percent dystrophin positive fibers (PDPF). In kind it is in vivo, human. How it is done:
as §2

Data set [4] relates to dystrophin. Description: Study 3 (Study 301): dystrophin in muscle biopsy by Western blot. In kind it is in vivo, human. How it is done: Dystrophin levels in muscle tissue were assessed by Western blot. In the 12 patients with evaluable results, the pre-treatment dystrophin level was 0.16%±0.12% (mean±standard deviation) of the dystrophin level in a healthy subject and 0.44%±0.43% after 48 weeks of treatment with EXONDYS 51® (p<0.05). The median increase after 48 weeks was 0.1%.

Data set [5] deals with dystrophin. Description: Study 201/202 Week 180 biopsy, IHC fiber intensity. The format is in vivo, human. As for the experimental part: as §2
Data set [6] deals with DMD patients amenable to exon 51 skipping. The data set can be described thus: 6 Minute Walk Test, Study 201/202 vs external control. In kind it is in vivo, human. How it is done:
In Study 1, patients were randomized to receive weekly infusions of EXONDYS 51° (30 mg/kg, n=4); EXONDYS 51° (50 mg/kg, n=4), or placebo (n=4) for 24 weeks. The primary endpoint was dystrophin production; a clinical outcome measure, the 6-minute walk test (6MWT), was also assessed. The 6MWT measures the distance that a patient can walk on a flat, hard surface in a period of 6 minutes.
as §1
The pre-specified criteria for identification of patients for the external control groups were based on the inclusion criteria for Study 201/202. These included baseline age, steroid use and specific DMD mutation. Each of these represent key prognostic factors that enable identification of a relatively homogenous population that would be expected to decline on the 6MWT.
A group with DMD mutations amenable to exon 51 skipping therapy (N=13, primary external control group).
The 6MWT assessments in both Study 201/202 and the external registries were conducted in a standardized manner according to international guidelines.

Data set [7] relates to DMD patients. The data set can be described thus: Pulmonary function tests (FVC % predicted). The following applies: literature >5% annual decline. The format is in vivo, human. The source says:
In some embodiments, MEP may decline before changes in other pulmonary function tests, including MIP and FVC. In certain embodiments, MEP may be an early indicator of respiratory dysfunction. In certain embodiments, FVC may be used to measure the total volume of air expelled during forced exhalation after maximum inspiration. In patients with DMD, FVC increases concomitantly with physical growth until the early teens. However, as growth slows or is stunted by disease progression, and muscle weakness progresses, the vital capacity enters a descending phase and declines at an average rate of about 8 to 8.5 percent per year after 10 to 12 years of age. In certain embodiments, MIP percent predicted (MIP adjusted for weight), MEP percent predicted (MEP adjusted for age) and FVC percent predicted (FVC adjusted for age and height) are supportive analyses.
Respiratory function in DMD is progressively impaired over time as the dystrophic process affects respiratory muscles, including the diaphragm, leading to significant morbidity and mortality. Eteplirsen treated boys had slower deterioration of respiratory muscle function as measured by FVC % predicted (decrease of ˜2.5% per year) when compared to data from the published literature (>5% annual decline). […]

Data set [8] has as its system DMD patients. The data set can be described thus: North Star Ambulatory Assessment (NSAA). The format is in vivo, human. The following applies: end of year three; vs Italian Telethon group. The source says: The NSAA is a clinician-reported outcome instrument specifically designed to measure function in ambulatory patients with DMD. The 17 items are each scored on a 0-2 ordinal scale and include assessments of abilities such as rising from the floor, climbing and descending a step, 10 meter walk/run and lifting the head. Over the first year, both the eteplirsen treated boys and the Italian Telethon group declined at a similar rate. However, following year one, as was observed on 6MWT, the decline in function for the eteplirsen group slowed and by the end of year three there was a 2.4 point greater decline for the untreated boys. This difference is of clinical relevance and may represent loss or impairment of up to 2 activities of daily living.

The test system of data set [9] is DMD patients amenable to exon 51 skipping. Description: Loss of ambulation, Study 201/202 vs external controls. In kind it is in vivo, human. The source says: Ambulatory compromise and irreversible loss of ambulation (LOA) are hallmarks of the progressive muscle degeneration characteristic of DMD. It is a reliable overall indicator of the severity of disease progression and strongly correlates with functional measures such as the 6MWT; it is also less influenced by motivational factors. Furthermore, LOA predicts other major disease milestones such as the need for ventilatory support and survival (Bello 2016). Once confined to a wheelchair, other symptoms tend to follow in rapid succession. Consistent with results of the 6MWT, fewer eteplirsen treated boys lost ambulation (2/12) compared to the external control patients who were amenable to exon 51 skipping therapy (10/13) over the four year time period.
Kaplan-Meier analyses for loss of ambulation were conducted, accounting for missing data. At year three the estimated probability for loss of ambulation was 17% for eteplirsen treated boys compared to 46% of boys from both external control cohorts. At year four, Kaplan-Meier estimates of loss of ambulation was 17% for eteplirsen treated boys compared to 85% for the external control boys amenable to exon 51 skipping. This difference in loss of ambulation over the 4-year period was statistically significant, with a nominal p-value of 0.011 (FIG. 8).

In data set [10] the test system is exon 51 of dystrophin pre-mRNA. The following applies: hDMD mouse model; cited from earlier work.
The test system of data set [11] is DMD patients. The data set can be described thus: Ability to rise from supine without external support. The format is in vivo, human. The following applies: by year three; external control 8%. The source says:
The ability to rise from supine is a critical activity for DMD patients, is one of the early abilities to be lost and may be predictive of loss of ambulation. In an analysis comparing the ability to rise from a supine position (without external support), 92% of eteplirsen treated vs 85% external control patients had the ability to rise without external support at baseline. By year three, 55% of eteplirsen vs 8% of external control patients had the ability to rise without external support.

The subject of another data set is immune response. The arrangement: species or system juvenile rats. The settings on record: rat, in vivo. The source says:
Phosphorothioates are known to cause a number of other target organ toxicities in animals, including complement activation and pro-inflammatory effects, coagulopathies, thrombocytopenia, vascular injury, and hepatic Kuppfer cell basophilia (Levin 1998; Monteith 1999; Levin 2001; Henry 2008; Frazier 2014; Engelhardt 2015; Frazier 2015).

Values joined by “and” are separate entries in the source; they are usually repeats but may differ in a detail not shown here. Equal entries are not always repeated. Some results are limits rather than exact numbers.

In the case of `CC/C=C\C/C=C\C/C=C\C/C=C\C/C=C\C/C=C\CCC(=O)NCCNC(=O)c1ccccc1O` [CAT-1004, N-(2-[(4Z,7Z,10Z,13Z,16Z,19Z)-docosa-4,7,10,13,16,19-hexaenamido]ethyl)-2-hydroxybenzamide], the safety and tolerability entry in the data set on NF-κB pathways was “safe, well tolerated”.
Turning to `CC/C=C\C/C=C\C/C=C\C/C=C\C/C=C\CCCC(=O)NCCNC(=O)c1ccccc1O` [CAT-1041], in the data set on Mdx mice (mdx mice), the exercise endurance entry is recorded as “increased exercise endurance”; the inflammation and fibrosis result was “reduced inflammation and fibrosis”; the muscle function entry is listed as “preserves muscle function”. Also, in the data set with Mdx mice (mdx mice, long-term studies), the muscle fibrosis entry is “reduces muscle fibrosis” and the skeletal muscle weight entry is listed as “increases skeletal muscle weight”. Moreover, the phenotype entry in the data set with Mdx mice (mdx mouse, long-term treatment) was “improves the phenotype”. For the same molecule, in the data set on Mdx mice (mouse DMD model), the diaphragm function entry is “improved diaphragm function”. The phenotype result in the data set on NF-κB (GRMD dog, long-term treatment) is on record as “improves the phenotype”. In addition, the diaphragm function entry with NF-κB (dog DMD model) is on record as “improved diaphragm function”. For the same molecule, the “cNF-κB activation in vitro” value in the data set on cNF-κB is on record as “inhibit cNF-κB activation in vitro”.
On to `O=C1CN(/N=C/c2ccc(-c3ccc([N+](=O)[O-])cc3)o2)C(O)=N1` [dantrolene], for which the antisense-mediated exon skipping result with patient cells and in the data set on mouse model of DMD was “enhance antisense-mediated exon skipping” throughout.
As to Eteplirsen, the “Difference of Means (Treated vs. Untreated)” value in the data set with dystrophin [1] (Western Blot, Week 180) was “+0.85%”; with dystrophin [3], “+16.27%”; in the data set with dystrophin [5], “+13.20%”. Also, the “Treated (Mean % Dystrophin of Normal)” value in the data set on dystrophin [1] (Western Blot, Week 180) is 0.93%; in the data set on dystrophin [3] it was 17.39%; in the data set with dystrophin [5] it was 22.61%. Also, the “Fold Increase in de novo dystrophin” value in the data set with dystrophin [1] (Western Blot, Week 180, relative to untreated controls) is 11.6 fold. For the same molecule, the “average dystrophin protein level after 180 weeks of treatment” value with dystrophin [1] (Western blot, eleven patients, 30 or 50 mg/kg/week) is 0.93 % of the dystrophin level in healthy subjects. The “induction of exon 51 skipping in vitro” value in data set [2] is reported as “potent inducer of exon 51 skipping”. Further, the entries for the “Fold Increase” value with dystrophin [3] (treated vs untreated) and in the data set with dystrophin [5] (treated vs untreated) were 15.5 fold and 2.4 fold, respectively. Besides, the “Week 48 % normal dystrophin” value with dystrophin [4] (30 mg/kg weekly, week 48, individual patients 1-12 and mean, listed as EXONDYS 51, 30 mg/kg) was 0.10 % normal dystrophin and 1.02 % normal dystrophin and 0.30 % normal dystrophin and 0.42 % normal dystrophin and 1.57 % normal dystrophin and 0.12 % normal dystrophin and 0.47 % normal dystrophin and 0.09 % normal dystrophin and 0.21 % normal dystrophin and 0.26 % normal dystrophin and 0.36 % normal dystrophin and 0.37 % normal dystrophin. In addition, the “median increase in dystrophin after 48 weeks” value in the data set with dystrophin [4] (12 evaluable patients) was 0.1%. Also, the “dystrophin level after 48 weeks of treatment (mean±standard deviation)” value in the data set on dystrophin [4] (12 evaluable patients, 30 mg/kg weekly, p<0.05 vs pre-treatment) is listed as 0.44%±0.43%. Further, in the data set on dystrophin [4] (week 48 vs pre-treatment baseline, individual patients 1-12 and mean, listed as EXONDYS 51), the “Change from Baseline % normal dystrophin” value is 0.06 % normal dystrophin and 0.85 % normal dystrophin and −0.07 % normal dystrophin and 0.25 % normal dystrophin and 1.33 % normal dystrophin and 0.01 % normal dystrophin (2×) and 0.43 % normal dystrophin and 0.07 % normal dystrophin and 0.03 % normal dystrophin and 0.13 % normal dystrophin and 0.31 % normal dystrophin. Besides, the “6MWT treatment benefit in sensitivity analyses” value in [6] (four year results, covariates age, 6MWT, steroid use) is listed as over 100 meter. For the same molecule, the “6MWT advantage vs external control” value was 162 meter in data set [6] (year four, p=0.0005) and 148 meter in data set [6] (year three, N=12 vs N=13, p=0.005). Besides, the “FVC % predicted decrease” value with DMD patients [7] is given as about 2.5 % per year. In addition, the “NSAA: greater decline for the untreated boys” value with DMD patients [8] is on record as 2.4 point. The “boys who lost ambulation” value in [9] (over a three year time period, external control (any exon skipping) 18/50) is 2/12; in data set [9] (over the four year time period, external control 10/13), 2/12. Also, the “Kaplan-Meier estimate of loss of ambulation” value in data set [9] (year four, external control 85%, p 0.011) is 17%. Also, the “Kaplan-Meier estimated probability for loss of ambulation” value in data set [9] (year three, external controls 46%) was 17%. In [10], the “exon 51 skipping in vivo” value was “confirmed in vivo”. Moreover, the “patients with ability to rise without external support” value in the data set on DMD patients [11] turned out to be 55%. In addition, in the data set with immune response, the “effect on the immune response” value is listed as “no adverse effect on the immune response”.
